From PubChem BioAssay AID248 (DTP/NCI, 2004)
Inconclusive results and toxic doses are left out. No stated cut-off is given here; in the data, active means T/C of 150% or more; inactive means T/C below 125%.

Test system: L1210 leukemia ip in BDF1 mice, survival T/C
Test: NCI In Vivo Anticancer Drug Screen. Data for tumor model L1210 Leukemia (intraperitoneal) in B6D2F1 (BDF1) mice
Conditions: endpoint: mean survival time, higher = longer survival
In short: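 Transplantable tumor model; survival measured in treated vs vehicle control mice. Value = treated/control.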

[1] = dose: 100.0 mg/kg/injection, schedule: Q01DX001 (ip), vehicle: Klucel (hydroxypropylcellulose) (HPC)
[2] = dose: 100.0 mg/kg/injection, schedule: Q01DX009 (ip), vehicle: Klucel (hydroxypropylcellulose) (HPC)
[3] = dose: 200.0 mg/kg/injection, schedule: Q01DX009 (ip), vehicle: Klucel (hydroxypropylcellulose) (HPC)
[4] = dose: 400.0 mg/kg/injection, schedule: Q01DX009 (ip), vehicle: Klucel (hydroxypropylcellulose) (HPC)
[5] = dose: 50.0 mg/kg/injection, schedule: Q01DX009 (ip), vehicle: saline
[6] = dose: 100.0 mg/kg/injection, schedule: Q01DX009 (ip), vehicle: saline with Tween-80
[7] = dose: 200.0 mg/kg/injection, schedule: Q01DX009 (ip), vehicle: saline with Tween-80
[8] = dose: 100.0 mg/kg/injection, schedule: Q01DX009 (ip), vehicle: saline
[9] = dose: 25.0 mg/kg/injection, schedule: Q01DX009 (ip), vehicle: Klucel (hydroxypropylcellulose) (HPC)
[10] = dose: 50.0 mg/kg/injection, schedule: Q04DX003 (ip), vehicle: saline
[11] = dose: 100.0 mg/kg/injection, schedule: Q01DX001 (ip), vehicle: carboxymethylcellulose (CMC)
[12] = dose: 100.0 mg/kg/injection, schedule: Q01DX001 (ip), vehicle: saline
[13] = dose: 100.0 mg/kg/injection, schedule: Q04DX003 (ip), vehicle: saline
[14] = dose: 200.0 mg/kg/injection, schedule: Q01DX001 (ip), vehicle: carboxymethylcellulose (CMC)
[15] = dose: 200.0 mg/kg/injection, schedule: Q01DX001 (ip), vehicle: saline
[16] = dose: 400.0 mg/kg/injection, schedule: Q01DX001 (ip), vehicle: carboxymethylcellulose (CMC)
[17] = dose: 12.5 mg/kg/injection, schedule: Q01DX009 (ip), vehicle: Klucel (hydroxypropylcellulose) (HPC)
[18] = dose: 12.5 mg/kg/injection, schedule: Q04DX003 (ip), vehicle: Klucel (hydroxypropylcellulose) (HPC)
[19] = dose: 25.0 mg/kg/injection, schedule: Q04DX003 (ip), vehicle: Klucel (hydroxypropylcellulose) (HPC)
[20] = dose: 50.0 mg/kg/injection, schedule: Q04DX003 (ip), vehicle: Klucel (hydroxypropylcellulose) (HPC)

Measured: T/C

CN(C)[C@@H]1C(=O)C(C(=O)NCc2nc3[nH]cnc(=S)c3[nH]2)=C(O)[C@@]2(O)C(=O)C3=C(O)c4c(O)cccc4[C@@](C)(O)[C@H]3C[C@@H]12
inactive: dose: 16.0 mg/kg/injection, schedule: Q01DX Z (ip), vehicle: carboxymethylcellulose (CMC) 107 % of control | dose: 32.0 mg/kg/injection, schedule: Q01DX Z (ip), vehicle: carboxymethylcellulose (CMC) 119 % of control | dose: 56.0 mg/kg/injection, schedule: Q01DX Z (ip), vehicle: carboxymethylcellulose (CMC) 103 % of control | dose: 64.0 mg/kg/injection, schedule: Q01DX Z (ip), vehicle: carboxymethylcellulose (CMC) 112 % of control
active: dose: 128.0 mg/kg/injection, schedule: Q01DX Z (ip), vehicle: carboxymethylcellulose (CMC) 150 % of control | dose: 192.0 mg/kg/injection, schedule: Q01DX Z (ip), vehicle: carboxymethylcellulose (CMC) 179 % of control

COc1ccc(-c2c(C)c(C(=O)O)nc(-c3ccc4c(O)c(OC)c5c(c4n3)=NC(C)(C)N=5)c2N)c(O)c1OC
inactive: dose: 4.5 mg/kg/injection, schedule: Q01DX Z (ip), vehicle: water 104 % of control | dose: 6.7 mg/kg/injection, schedule: Q01DX Z (ip), vehicle: water 97 % of control | dose: 10.0 mg/kg/injection, schedule: Q01DX Z (ip), vehicle: water 111 % of control | dose: 15.0 mg/kg/injection, schedule: Q01DX Z (ip), vehicle: water 103 % of control

NC(N)=NC(CC(=O)O)C(=O)O (stereo not drawn)
inactive: dose: 100.0 mg/kg/injection, schedule: Q01DX Z (ip), vehicle: methylcellulose (MC) 92 % of control | dose: 200.0 mg/kg/injection, schedule: Q01DX Z (ip), vehicle: methylcellulose (MC) 92 % of control

O=C(Cl)OCC(Cl)(Cl)Cl
inactive: [1] 100 % of control | [2] 100 % of control | dose: 200.0 mg/kg/injection, schedule: Q01DX001 (ip), vehicle: Klucel (hydroxypropylcellulose) (HPC) 100 % of control | [3] 96 % of control | dose: 400.0 mg/kg/injection, schedule: Q01DX001 (ip), vehicle: Klucel (hydroxypropylcellulose) (HPC) 100 % of control

O=C(Nc1cccc(O)c1)OCCCl
inactive: dose: 100.0 mg/kg/injection, schedule: Q01DX001 (ip), vehicle: saline + alcohol 105 % of control | dose: 200.0 mg/kg/injection, schedule: Q01DX001 (ip), vehicle: saline + alcohol 102 % of control | dose: 400.0 mg/kg/injection, schedule: Q01DX001 (ip), vehicle: saline + alcohol 92 % of control

O=C(O)CN1C(=O)OC(c2ccccc2)C1=O (stereo not drawn)
inactive: [2] 101 % of control | [3] 97 % of control | [4] 86 % of control

Cc1ccc(C)c(C2NC(=O)c3ccccc3N2)c1 (stereo not drawn)
inactive: [2] 102 % of control | dose: 100.0 mg/kg/injection, schedule: Q04DX003 (ip), vehicle: Klucel (hydroxypropylcellulose) (HPC) 106 % of control | [3] 106 % of control | dose: 200.0 mg/kg/injection, schedule: Q04DX003 (ip), vehicle: Klucel (hydroxypropylcellulose) (HPC) 90 % of control | [4] 103 % of control | dose: 400.0 mg/kg/injection, schedule: Q04DX003 (ip), vehicle: Klucel (hydroxypropylcellulose) (HPC) 93 % of control

CN(C)CCCCC(C#N)(c1ccccc1)c1ccccc1
inactive: dose: 15.0 mg/kg/injection, schedule: Q01DX001 (ip), vehicle: saline 88 % of control | dose: 30.0 mg/kg/injection, schedule: Q01DX001 (ip), vehicle: saline 92 % of control

O=C(Nc1ccc(Cl)cc1[N+](=O)[O-])c1ccc2ccccc2c1O
inactive: [2] 101 % of control | [3] 111 % of control | [4] 103 % of control

Cc1ccc(C(SCC(N)C(=O)O)(c2ccccc2)c2ccccc2)cc1 (stereo not drawn)
active: dose: 12.5 mg/kg/injection, schedule: Q01DX009 (ip), vehicle: other 157 % of control | dose: 12.5 mg/kg/injection, schedule: Q01DX009 (ip), vehicle: saline 159 % of control | dose: 25.0 mg/kg/injection, schedule: Q01DX009 (ip), vehicle: other 157 % of control | dose: 25.0 mg/kg/injection, schedule: Q01DX009 (ip), vehicle: saline 171 % of control | dose: 50.0 mg/kg/injection, schedule: Q01DX009 (ip), vehicle: other 151 % of control | [5] 204 % of control

N=Cc1c(O)n(-c2ccccc2)c(=O)n(-c2ccccc2)c1=O
inactive: [6] 102 % of control | [7] 104 % of control | dose: 400.0 mg/kg/injection, schedule: Q01DX009 (ip), vehicle: saline with Tween-80 93 % of control

CP1(=O)CC2OC2C1 (stereo not drawn)
inactive: [5] 96 % of control | [8] 89 % of control | dose: 200.0 mg/kg/injection, schedule: Q01DX009 (ip), vehicle: saline 93 % of control

Nc1ccc(CCc2nc(N)[nH]c(=O)c2CCCCc2ccccc2)cc1
inactive: dose: 25.0 mg/kg/injection, schedule: Q01DX001 (ip), vehicle: Klucel (hydroxypropylcellulose) (HPC) 98 % of control | dose: 50.0 mg/kg/injection, schedule: Q01DX001 (ip), vehicle: Klucel (hydroxypropylcellulose) (HPC) 96 % of control | [1] 88 % of control

Nc1nc(Cl)nc2c1ncn2C1OC(CO)C(O)C1O (stereo not drawn)
inactive: [9] 102 % of control | dose: 37.5 mg/kg/injection, schedule: Q01DX009 (ip), vehicle: saline with Tween-80 113 % of control | dose: 50.0 mg/kg/injection, schedule: Q01DX001 (ip), vehicle: carboxymethylcellulose (CMC) 93 % of control | dose: 50.0 mg/kg/injection, schedule: Q01DX009 (ip), vehicle: Klucel (hydroxypropylcellulose) (HPC) 114 % of control | [10] 108 % of control | [11] 96 % of control | [12] 92 % of control | [2] 123 % of control | [13] 113 % of control | [14] 98 % of control | [15] 103 % of control | dose: 225.0 mg/kg/injection, schedule: Q01DX009 (ip), vehicle: saline 121 % of control | [16] 118 % of control
active: [8] 156 % of control | dose: 300.0 mg/kg/injection, schedule: Q04DX003 (ip), vehicle: saline 153 % of control

COc1c(Cl)cc([N+](=O)[O-])c(OC)c1[N+](=O)[O-]
inactive: dose: 50.0 mg/kg/injection, schedule: Q01DX009 (ip), vehicle: acetone 90 % of control | [10] 98 % of control | dose: 100.0 mg/kg/injection, schedule: Q01DX001 (ip), vehicle: acetone 94 % of control | dose: 100.0 mg/kg/injection, schedule: Q01DX009 (ip), vehicle: acetone 90 % of control | [13] 93 % of control | dose: 200.0 mg/kg/injection, schedule: Q01DX001 (ip), vehicle: acetone 98 % of control

CCOC(=O)c1c(C)c(-c2ccccc2F)nc2ccccc12
inactive: [12] 103 % of control | [15] 94 % of control

O=C(OC1COC(n2c(=O)oc3cc(Br)c(Cl)cc32)C(OC(=O)c2ccccc2)C1OC(=O)c1ccccc1)c1ccccc1 (stereo not drawn)
inactive: [11] 96 % of control | [14] 96 % of control | [16] 89 % of control

c1ccc(CCNc2ccnc3ccccc23)cc1
inactive: [17] 103 % of control | [18] 104 % of control | [9] 101 % of control | [19] 97 % of control | [20] 95 % of control

O=C1CSC(=S)N1c1ccc(N2C(=O)CSC2=S)cc1
inactive: dose: 100.0 mg/kg/injection, schedule: Q04DX002 (ip), vehicle: saline with Tween-80 90 % of control | dose: 200.0 mg/kg/injection, schedule: Q04DX002 (ip), vehicle: saline with Tween-80 96 % of control | dose: 400.0 mg/kg/injection, schedule: Q04DX002 (ip), vehicle: saline with Tween-80 100 % of control

COc1ccc(C(=O)CBr)c(OC)c1C
inactive: [17] 94 % of control | [18] 100 % of control | [9] 91 % of control | [19] 105 % of control | [20] 96 % of control

CC12COC(=O)CC1CCC1C2CCC2(C)C1CCC2(C)O (stereo not drawn)
inactive: dose: 50.0 mg/kg/injection, schedule: Q01DX009 (ip), vehicle: saline with Tween-80 96 % of control | [12] 93 % of control | [6] 91 % of control | [15] 90 % of control | [7] 101 % of control
